From US6544991B2, “Compositions and methods for treating bacterial infections” (priority 2000, dated 2003)
Where two headings read alike, the source gives them in different places.

Key:
[1] = test system: MRSA strains; assay: MIC by agar dilution or microbroth dilution method (NCCLS); format: cell-based, Staph. aureus; conditions: for MIC: Staphylococcus aureus
Experimental: (§1) Bacterial isolates were obtained from human infections. The isolates were maintained frozen in a liquid nitrogen freezer and plated on Trypticase Soy Agar (TSA) plates supplemented with 5% sheep blood. The quality control strain Staph. aureus 29213 was originally acquired from the American Type Culture Collection (Rockville, Md.).
(§2) MICs were determined by an agar dilution method or microbroth dilution method recommended by NCCLS. Synergy was assessed by agar dilution checker-board method. Minimal inhibitory concentrations (MICS) for each separate drug were determined. The fractional inhibitory concentration (FIC) values were calculated by the MIC of Drug A (e.g., sulbactam/ampicillin) and Drug B (e.g., linezolid or arbekacin) in combination/MIC of Drug A or B alone. The FIC index was determined according to the following formula: [formula]

[2] = test system: VRSA strains; assay: MIC by agar dilution or microbroth dilution method (NCCLS), VRSA strains; format: cell-based, Staph. aureus; conditions: VRSA strains (n = 10); for MIC: Staphylococcus aureus
Experimental: as §1, §2
In total, 48 MRSA strains were tested, including ten VRSA strains isolated from five different countries in the world, 33 MRSA strains isolated from ten Japanese university hospitals, and five MRSA type strains from Juntendo University, Department of Bacteriology, Tokyo, Japan.

[3] = test system: Staph. aureus 29213; assay: MIC, quality control strain; format: cell-based; conditions: for MIC: Staphylococcus aureus, read-out: MIC Values
Experimental: as §1, §2

[4] = MRSA / NCTC 10442, strain NCTC 10442, read-out: MIC Values
[5] = MRSA, MRSA strains (n = 38), read-out: MICs 50%
[6] = MRSA, MRSA strains (n = 38), read-out: MICs 90%
[7] = MRSA, strain 85/2082, read-out: MIC Values
[8] = MRSA, strain 99.3700W, read-out: MIC Values
[9] = MRSA, strain 99.3759V, read-out: MIC Values
[10] = MRSA, strain AMC 11094, read-out: MIC Values
[11] = MRSA, strain BM12612(new), read-out: MIC Values
[12] = MRSA, strain H1, read-out: MIC Values
[13] = MRSA, strain HIP 5827, read-out: MIC Values
[14] = MRSA, strain HIP 5836, read-out: MIC Values
[15] = MRSA, strain HIP 6297, read-out: MIC Values
[16] = MRSA, strain HIP 7737, read-out: MIC Values
[17] = MRSA, strain JSCC 340, read-out: MIC Values
[18] = MRSA, strain JSCC 351, read-out: MIC Values
[19] = MRSA, strain JSCC 363, read-out: MIC Values
[20] = MRSA, strain JSCC 381, read-out: MIC Values
[21] = MRSA, strain JSCC 390, read-out: MIC Values
[22] = MRSA, strain JSCC 401, read-out: MIC Values
[23] = MRSA, strain JSCC 413, read-out: MIC Values
[24] = MRSA, strain JSCC 431, read-out: MIC Values
[25] = MRSA, strain JSCC 440, read-out: MIC Values
[26] = MRSA, strain JSCC 451, read-out: MIC Values
[27] = MRSA, strain JSCC 463, read-out: MIC Values
[28] = MRSA, strain JSCC 481, read-out: MIC Values
[29] = MRSA, strain JSCC 490, read-out: MIC Values
[30] = MRSA, strain JSCC 501, read-out: MIC Values
[31] = MRSA, strain JSCC 513, read-out: MIC Values
[32] = MRSA, strain JSCC 531, read-out: MIC Values
[33] = MRSA, strain JSCC 540, read-out: MIC Values
[34] = MRSA, strain JSCC 551, read-out: MIC Values
[35] = MRSA, strain JSCC 563, read-out: MIC Values
[36] = MRSA, strain JSCC 581 (lacks the mecA gene), read-out: MIC Values
[37] = MRSA, strain JSCC 590 (lacks the mecA gene), read-out: MIC Values
[38] = MRSA, strain JSCC 601, read-out: MIC Values
[39] = MRSA, strain JSCC 640, read-out: MIC Values
[40] = MRSA, strain JSCC 651, read-out: MIC Values
[41] = MRSA, strain JSCC 663, read-out: MIC Values
[42] = MRSA, strain JSCC 681, read-out: MIC Values
[43] = MRSA, strain JSCC 690, read-out: MIC Values
[44] = MRSA, strain JSCC 701, read-out: MIC Values
[45] = MRSA, strain JSCC 713, read-out: MIC Values
[46] = MRSA, strain JSCC 731, read-out: MIC Values
[47] = MRSA, strain JSCC 740, read-out: MIC Values
[48] = MRSA, strain JSCC 751, read-out: MIC Values
[49] = MRSA, strain JSCC 763, read-out: MIC Values
[50] = MRSA, strain JSCC 781, read-out: MIC Values
[51] = MRSA, strain JSCC 870, read-out: MIC Values
[52] = MRSA, strain LIM 2, read-out: MIC Values
[53] = MRSA, strain Mu 3, read-out: MIC Values
[54] = MRSA, strain Mu 50, read-out: MIC Values
[55] = MRSA, strain N315, read-out: MIC Values
[56] = ATCC29213, strain ATCC 29213, control sample (Ex. 26)
[57] = ATCC29213, strain ATCC29213, control sample (Ex. 37)

## NCC[C@H](O)C(=O)N[C@@H]1C[C@H](N)[C@@H](O[C@H]2O[C@H](CN)CC[C@H]2N)[C@H](O)[C@H]1O[C@H]1O[C@H](CO)[C@@H](O)[C@H](N)[C@H]1O [ABK, arbekacin]
[1]; MRSA strains (n = 38)
  MICs Range: 0.125 to 4 mg/L
[1]; [4]
  MIC: 0.125 µg/mL
[1]; [5]
  MIC: 0.5 µg/mL
[1]; [6]
  MIC: 2 µg/mL
[1]; [7]
  MIC: 0.25 µg/mL
[1]; [8]
  MIC: 4 µg/mL
[1]; [9]
  MIC: 2 µg/mL
[1]; [10]
  MIC: 0.25 µg/mL
[1]; [11]
  MIC: 2 µg/mL
[1]; [12]
  MIC: 1 µg/mL
[1]; [13]
  MIC: 1 µg/mL
[1]; [14]
  MIC: 1 µg/mL
[1]; [15]
  MIC: 0.125 µg/mL
[1]; [16]
  MIC: 0.125 µg/mL
[1]; [17]
  MIC: 1 µg/mL
[1]; [18]
  MIC: 1 µg/mL
[1]; [19]
  MIC: 1 µg/mL
[1]; [20]
  MIC: 0.5 µg/mL
[1]; [21]
  MIC: 0.5 µg/mL
[1]; [22]
  MIC: 0.5 µg/mL
[1]; [23]
  MIC: 1 µg/mL
[1]; [24]
  MIC: 1 µg/mL
[1]; [25]
  MIC: 0.25 µg/mL
[1]; [26]
  MIC: 4 µg/mL
[1]; [27]
  MIC: 0.5 µg/mL
[1]; [28]
  MIC: 1 µg/mL
[1]; [29]
  MIC: 0.5 µg/mL
[1]; [30]
  MIC: 0.5 µg/mL
[1]; [31]
  MIC: 0.25 µg/mL
[1]; [32]
  MIC: 0.5 µg/mL
[1]; [33]
  MIC: 1 µg/mL
[1]; [34]
  MIC: 2 µg/mL
[1]; [35]
  MIC: 0.125 µg/mL
[1]; [36]
  MIC: 0.5 µg/mL
[1]; [37]
  MIC: 0.25 µg/mL
[1]; [38]
  MIC: 0.25 µg/mL
[1]; [39]
  MIC: 2 µg/mL
[1]; [40]
  MIC: 1 µg/mL
[1]; [41]
  MIC: 0.5 µg/mL
[1]; [42]
  MIC: 1 µg/mL
[1]; [43]
  MIC: 2 µg/mL
[1]; [44]
  MIC: 1 µg/mL
[1]; [45]
  MIC: 2 µg/mL
[1]; [46]
  MIC: 0.5 µg/mL
[1]; [47]
  MIC: 0.125 µg/mL
[1]; [48]
  MIC: 2 µg/mL
[1]; [49]
  MIC: 0.25 µg/mL
[1]; [50]
  MIC: 2 µg/mL
[1]; [51]
  MIC: 0.5 µg/mL
[1]; [52]
  MIC: 1 µg/mL
[1]; [53]
  MIC: 2 µg/mL
[1]; [54]
  MIC: 4 µg/mL
[1]; [55]
  MIC: 0.5 µg/mL
[2]; read-out: MICs 50%
  MIC: 1 µg/mL
[2]; read-out: MICs 90%
  MIC: 4 µg/mL
[2]
  MICs Range: 0.125 to 4 mg/L
[3]; [56]
  MIC: 0.25 µg/mL
[3]; [57]
  MIC: 0.25 µg/mL

## CC1(C)SC2C(NC(=O)C(N)c3ccccc3)C(=O)N2C1C(=O)O (stereo not drawn) [ABPC, α-aminobenzylpenicillin]
[1]; [4]
  MIC: < 128 µg/mL
[1]; [5]
  MIC: 16 µg/mL
[1]; [6]
  MIC: 64 µg/mL
[1]; [7]
  MIC: 32 µg/mL
[1]; [8]
  MIC: 32 µg/mL
[1]; [9]
  MIC: 64 µg/mL
[1]; [10]
  MIC: 16 µg/mL
[1]; [11]
  MIC: 64 µg/mL
[1]; [12]
  MIC: 16 µg/mL
[1]; [13]
  MIC: 64 µg/mL
[1]; [14]
  MIC: 16 µg/mL
[1]; [15]
  MIC: 16 µg/mL
[1]; [16]
  MIC: 32 µg/mL
[1]; [17]
  MIC: 64 µg/mL
[1]; [18]
  MIC: 32 µg/mL
[1]; [19]
  MIC: 16 µg/mL
[1]; [20]
  MIC: 32 µg/mL
[1]; [21]
  MIC: 32 µg/mL
[1]; [22]
  MIC: 128 µg/mL
[1]; [23]
  MIC: 16 µg/mL
[1]; [24]
  MIC: 64 µg/mL
[1]; [25]
  MIC: 32 µg/mL
[1]; [26]
  MIC: 16 µg/mL
[1]; [27]
  MIC: 16 µg/mL
[1]; [28]
  MIC: 64 µg/mL
[1]; [29]
  MIC: 64 µg/mL
[1]; [30]
  MIC: 32 µg/mL
[1]; [31]
  MIC: 16 µg/mL
[1]; [32]
  MIC: 32 µg/mL
[1]; [33]
  MIC: 32 µg/mL
[1]; [34]
  MIC: 16 µg/mL
[1]; [35]
  MIC: 1 µg/mL
[1]; [36]
  MIC: 0.5 µg/mL
[1]; [37]
  MIC: 0.5 µg/mL
[1]; [38]
  MIC: 16 µg/mL
[1]; [39]
  MIC: 16 µg/mL
[1]; [40]
  MIC: 64 µg/mL
[1]; [41]
  MIC: 16 µg/mL
[1]; [42]
  MIC: 16 µg/mL
[1]; [43]
  MIC: 16 µg/mL
[1]; [44]
  MIC: 32 µg/mL
[1]; [45]
  MIC: 16 µg/mL
[1]; [46]
  MIC: 32 µg/mL
[1]; [47]
  MIC: 16 µg/mL
[1]; [48]
  MIC: 64 µg/mL
[1]; [49]
  MIC: 8 µg/mL
[1]; [50]
  MIC: 16 µg/mL
[1]; [51]
  MIC: 32 µg/mL
[1]; [52]
  MIC: 32 µg/mL
[1]; [53]
  MIC: 32 µg/mL
[1]; [54]
  MIC: 32 µg/mL
[1]; [55]
  MIC: 8 µg/mL
[2]; read-out: MICs 50%
  MIC: 32 µg/mL
[2]; read-out: MICs 90%
  MIC: 64 µg/mL
[2]
  MICs Range: 16 to 64 mg/L
[3]; [56]
  MIC: 0.5 µg/mL
[3]; [57]
  MIC: 0.25 µg/mL

## Cc1onc(-c2ccccc2)c1C(=O)N[C@@H]1C(=O)N2[C@@H]1SC(C)(C)[C@@H]2C(=O)O [MPIPC, oxacillin]
[1]; strain 85/2082
  MIC Values: 64 µg/mL
[1]; strain HIP 6297
  MIC Values: 64 µg/mL
[1]; strain JSCC 563
  MIC Values: 2 µg/mL
[1]; strain JSCC 581 (lacks the mecA gene)
  MIC Values: 1 µg/mL
[1]; strain JSCC 590 (lacks the mecA gene)
  MIC Values: 1 µg/mL
[1]; strain JSCC 601
  MIC Values: 64 µg/mL
[1]; strain N315
  MIC Values: 16 µg/mL
[3]; strain ATCC 29213, control sample (Ex. 26)
  MIC Values: 0.25 µg/mL
[3]; strain ATCC29213, control sample (Ex. 37)
  MIC Values: 0.25 µg/mL
